Measured values published in publication PMC10354055, “An optimized Nurr1 agonist provides disease-modifying effects in Parkinson’s disease models” (Nature Communications, 2023).
pEC50: −log10 of the molar value. Values joined by “and” are separate entries in the source; they are usually repeats but may differ in a detail not shown here. Equal entries are not always repeated. Where two headings read alike, the source gives them in different places.

Key:
[1] = test system: N27-A cells; experiment: Cellular oxidative stress, DCFDA ROS assay, N27-A cells; format: cell-based, rat; conditions: for MPP+-induced ROS levels (in words): CQ 100 µM, 4A7C-301 1 µM; for ROS intensity (fold of control): Fig. S1i, with MPP+, replicates
Protocol: Cellular oxidative stress was detected using the DCFDA Cellular ROS Assay Kit (Abcam) according to the manufacturer’s protocol. Briefly, cells seeded in black clear bottom 96 well plate were stained with DCFDA solution (20 µM) for 45 min at 37 °C.

[2] = test system: TNFα gene; experiment: LPS-induced TNFα gene expression in BV2 cells, qRT-PCR; format: cell-based, mouse; conditions: for pEC50: Mus musculus, BV-2; for Relative TNFα expression (% of control): Fig. S6, LPS
Protocol: SK-N-BE(2)C human neuroblastoma, BV2 mouse microglia (ATCC), HeLa and MN9D cell lines were cultured in Dulbecco’s Modified Eagle Medium (DMEM) supplemented with 10% fetal bovine serum (FBS) and 100 U /ml penicillin and 100 μg /ml streptomycin. The murine MN9D dopaminergic cell line was kindly provided by Drs. Michael Zigmond and Juliann Jaumotte from the University of Pittsburgh. The N27-A rat dopaminergic cell line was kindly provided by Dr. Curt Freed from the University of Colorado School of Medicine. […] For transactivity assay, SK-N-BE(2)C and N27-A cell lines were transfected with pCMV-fNurr1, pGAL-Nurr1(LBD), pGAL-Nor1(LBD) or pGAL-Nur77(LBD) and reporter construct (p4xNL3-Luc for fNurr1 or p8xUAS-Luc for LBD constructs). pRSV-β-gal was co-transfected as an internal control. Cells were lysed in a lysis buffer (25 mM Tris-phosphate (pH 7.8), 2 mM DTT, 2 mM DCTA (1,2-diaminocyclohexane-N,N,N′,N′-tetraacetic acid), 10% glycerol, and 1% Triton X-100) 24 h after transfection, followed by adding firefly luciferase substrate for luminescence detection measured by a luminometer plate reader (SpectraMax®; Molecular device). Nurr1 transactivity was normalized to β-galactosidase activity. […] For Nurr1 stability determination, MN9D cells were incubated with MPP^+ (0.5 mM) for 2, 4, 8, 16, 24, and 32 h, or were transduced with lentivirus expressing GFP only or αSyn (wild-type or A53T) then harvested 24, 48 and 72 h after transduction. For autophagolysosome (APL) formation assay, HeLa and N27-A cells were transfected with mRFP-GFP-LC3 (Addgene) using Lipofectamine 2000 (Invitrogen). The medium was changed with starvation medium (Earle’s Balanced Salt Solution; EBSS) 24 h after transfection for autophagy induction.
Total RNA was extracted using the GeneJET RNA Purification Kit (Thermo Fisher Scientific) and 100 ng of RNA was subjected to cDNA synthesis using Invitrogen Superscript cDNA Synthesis Kit (Invitrogen) according to the manufacturer’s protocol. qRT-PCR was performed using a CFX Connect Real-Time System (Bio-Rad) in a 20 μl volume mixture containing 2X SsoAdvanced Universal SYBR Green Supermix (Bio-Rad), 100 ng/μl of forward and reverse primers, and 1 μl of cDNA sample. Gene expression levels were quantified by the 2^∆∆CT method (Ct of target gene—Ct of glyceraldehyde-3-phosphate dehydrogenase (GAPDH). The following primers were used for qRT-PCR: TH forward: 5′-[…]-3′, reverse: 5′-[…]-3′; DAT forward: 5′-[…]-3′, reverse: 5′-[…]-3′; AADC forward: 5′-[…]-3′, reverse: 5′-[…]-3′; VMAT2 forward: 5′-[…]-3′, reverse: 5′-[…]-3′; c-Ret forward: 5′-[…]-3′, reverse: 5′-[…]-3′; TNFα forward: 5′-[…]-3′; reverse: 5′-[…]-3′; GAPDH, forward 5′-[…]-3′, reverse 5′-[…]-3′.

[3] = test system: N27-A cells; experiment: Lysosomal pH detection, LysoSensor, N27-A cells; format: cell-based, rat; conditions: for Lysosomal pH: Figure 3d, individual replicates
Protocol: Lysosomal pH was detected as previously described. Briefly, after incubation in EBSS containing BafA1 (10 nM), CQ (20 µM), or 4A7C-301 (1 µM) for 6 h, HeLa and N27-A cells were treated with LysoSensor™ Yellow/Blue DND-160 (5 µM; Life Technology) for 45 min, followed by 2 washes in HEPES buffer (Gibco). Fluorescence images at excitation/emission wavelengths of 360/460 nm and 470/525 nm were taken immediately using a 400 nm dichroic mirror (KEYENCE). The ratio of fluorescence intensities (F360/470) were measured and calculated manually using ImageJ for each cell. The average pH from measuring 5 cells from each of three wells for each treatment group in both HeLa and N27-A cells was calculated by fitting the F360/470 values to a plotted pH calibration curve with KCl/NaCl buffered from pH 3.5 to 7.0 using GraphPad Prism (Version 8.0.2).

[4] = test system: MPTP-induced male mice; experiment: Rotarod, sub-chronic MPTP-induced PD model mice; format: in vivo, mouse; conditions: for Latency to fall: Figure 4b, MPTP-induced mice, individual animal values
Protocol: (§1) MPTP (Sigma-Aldrich) was intraperitoneally (i.p.) injected (30 mg/kg) for 5 days (Day 1-5). […] To test dyskinetic involuntary behavior, an L-DOPA injected group was included, which received 50 mg/kg of L-DOPA and 15 mg/kg of benserazide (Sigma-Aldrich) (i.p.) for 16 days (Day 1–16). All compounds were administered 6 h post-MPTP injection to avoid any effect of compounds on the MPTP metabolism in the brain. Motor and non-motor related behavior tests were performed on the following days as described in Fig. 4a in an assessor- and observer-blinded fashion. Pre-training and baseline setup for motor-related behaviors were performed 3 days prior to the injections. Mice were sacrificed and subjected to immunohistochemistry. Mice were housed at the Animal Care Facilities of McLean Hospital under a 12-h light/12-h dark cycle, ambient temperature and humidity. Animals were handled in accordance with McLean Hospital’s Institutional Animal Care and Use Committee (Protocol #: 2015N000002) and followed National Institutes of Health guidelines.
Mice were pre-trained on an automated 5-lane rotarod unit (10 rpm, 3 min) for 2 days and the baseline was measured (10 rpm, 90 sec) before the rotarod test (3 days before the MPTP injection or the first rotarod test at week 2). Rotarod measurements were performed using an accelerating protocol, accelerated smoothly from 2 to 30 rpm for 5 min. Time on the rotating rod was measured automatically by placing a trip switch under the floor beneath the rotating drum.

[5] = test system: MPTP-induced male mice; experiment: Olfactory discrimination test, MPTP-induced PD model mice; format: in vivo, mouse; conditions: for olfaction, olfactory discrimination test (in words): CQ 40, 4A7C-301 5, L-DOPA 50 mg/kg/day, i.p.
Protocol: as §1
The olfactory discrimination test was designed based on Prediger et al.. Briefly, mice were placed in a chamber (40 (w) × 20 (d) × 20 (h) cm) segmented with two identical compartments containing fresh sawdust (non-familiar odor) on one side and unchanged sawdust (familiar odor; maintained for 3 days before the test) on the other side. Mice could choose between one or another area by freely passing through an open door, for 5 min. Mice movements were monitored with EthoVision XT version 7.0 (Noldus) and time (s) and distance (cm) traveled in each compartment were recorded and analyzed.

[6] = Figure 4e, MPTP-induced mice, individual animal values

SMILES	MPP+-induced ROS levels (in words) [1]	pEC50 [2]	Lysosomal pH [3]	lysosomal pH (in words) ([3]; N27-A, BafA1 10 nM, CQ 20 µM, 4A7C-301 1 µM)	Latency to fall [4]	olfaction, olfactory discrimination test (in words) [5]	Velocity [5, 6]	ROS intensity (fold of control) ([1]; Control cells)	ROS intensity (fold of control) ([1]; Nurr1 KD cells)	ROS intensity (fold of control) ([1]; Nurr1 OE cells)	Relative TNFα expression (% of control) ([2]; Conc. 0.0001 µM)	Relative TNFα expression (% of control) ([2]; Conc. 0.001 µM)	Relative TNFα expression (% of control) ([2]; Conc. 0.01 µM)	Relative TNFα expression (% of control) ([2]; Conc. 0.1 µM)	Relative TNFα expression (% of control) ([2]; Conc. 1 µM)	pEC50 ([2]; suppression of LPS-induced TNFα gene, BV2 cells, read-out: EC50)	motor function, rotarod (in words) ([4]; CQ 40, 4A7C-301 5, L-DOPA 50 mg/kg/day, i.p., 16 days)	Duration to stay (sec), New bedding ([5]; Figure 4e, New bedding, MPTP-induced mice, individual animal values)	Duration to stay (sec), Old bedding ([5]; Figure 4e, Old bedding, MPTP-induced mice, individual animal values)
CCN(CC)CCCC(C)Nc1ccnc2cc(Cl)ccc12 (stereo not drawn) [CQ, chloroquine]	significantly reduced	~7.00	4.937 and 5.068 and 5.133 and 5.85 and 5.426 and 5.296 and 5.622 and 4.4486 and 5.263 and 4.481 and 5.947	significantly increased	188.53 s and 158.67 s and 132.1 s and 179.3 s and 127.13 s and 200.87 s and 173.6 s and 164.1 s	significantly restored	3.95 cm/s and 4.45 cm/s and 4.51 cm/s and 5.91 cm/s and 5.61 cm/s and 5.73 cm/s and 4.26 cm/s and 5.02 cm/s and 3.4 cm/s and 5.27 cm/s and 6.07 cm/s	–	–	–	–	–	–	–	–	–	–	–	–
CCN1CCN(c2cc(N3CCN(CC)CC3)nc(NCCNc3ccnc4cc(Cl)ccc34)n2)CC1 [4A7C-301, N^1-(4,6-bis(4-ethylpiperazin-1-yl)pyrimidin-2-yl)-N^2-(7-chloroquinolin-4-yl)ethane-1,2-diamine]	significantly reduced	–	3.797 and 3.992 and 4.709 and 4.807 and 4.383 and 3.8621 and 3.96 and 4.416 and 4.97 and 4.481 and 4.351 and 4.742 and 4.221 and 3.927	–	133.23 s and 202.2 s and 133.57 s and 139.3 s and 213.2 s and 211.5 s and 122.9 s and 231.93 s	significantly restored	4.45 cm/s and 5.11 cm/s and 5.02 cm/s and 4.95 cm/s and 5.52 cm/s and 4.32 cm/s and 6.05 cm/s and 4.65 cm/s and 4.59 cm/s	1.457 fold of control and 1.389 fold of control and 1.394 fold of control	2.059 fold of control and 2.042 fold of control and 2.017 fold of control	0.87 fold of control and 0.894 fold of control and 0.877 fold of control	72.3049 % of control and 70.453 % of control and 74.7916 % of control	45.7586 % of control and 44.0429 % of control and 42.816 % of control	26.6218 % of control and 26.6304 % of control and 26.1645 % of control	25.1791 % of control and 23.3247 % of control and 22.8855 % of control	21.147 % of control and 21.3464 % of control and 19.5073 % of control	~9.00	significantly rescued	163.9 s and 142.98 s and 108.88 s and 102.84 s and 124.52 s and 121.25 s and 140.21 s and 123.92 s and 115.28 s	181.18 s and 132.3 s and 153.69 s and 187.59 s and 195.2 s and 172.27 s and 176.41 s and 155.62 s and 172.61 s
